Measured values taken from patent US7135466B2 (Kirin Beer Kabushiki Kaisha, priority 1999, dated 2006).

Key:
PDGF-Ra = target: T1, PDGF-Ra (Homo sapiens, UniProt P16234); test: Inhibitory activity against PDGF-Ra phosphorylation by PDGF-AA stimulation using G292; assay type: cell-based; details: for IC50: > means inhibition at indicated concentration not more than 50%, < and << not less than 50%, read-out: PDGF (E) IC50; for inhibition at 0.1 µM: G292, figure in parentheses in >100( ), at 100 nM, read-out: PDGF (E) inhibition (%) at 100 nM
T1 construct: host or cells: G-292 human osteosarcoma cells
Summary of the method: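 Read-out: A450 from a sandwich ELISA (PY-20 capture, anti-PDGF-Ra detection, peroxidase colour) of lysates from G-292 cells given compound for 1 hr at 37 °C before a 5 min challenge with PDGF-AA at 50 ng/ml.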

c-kit = target: T2, c-kit (Homo sapiens, UniProt P10721); test: Inhibitory activity against c-kit autophosphorylation (MO7e cells, h-SCF); assay type: cell-based; details: for IC50: MO7e cells, h-SCF stimulation, read-out: c-kit IC50; for inhibition at 1 µM: Mo7e
T2 construct: MO7e (human megakaryocytic leukemia cell line) which had been arrested for 20 hr; endogenous in cells; host or cells: MO7e human megakaryocytic leukemia cell line
Summary of the method: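 MO7e cells, arrested for 20 hr, were pretreated with test compound in DMSO for 1 hr and then stimulated with 50 ng/ml h-SCF for 5 min before lysis. Lysates were captured on immobilized anti-phosphotyrosine PY-20, probed with anti-c-kit antibody and HRP anti-rabbit IgG, and read colorimetrically at 450 nm.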

[1] = figure in parentheses in −( ), at 1000 nM

T1 sequence (P16234 24-1089): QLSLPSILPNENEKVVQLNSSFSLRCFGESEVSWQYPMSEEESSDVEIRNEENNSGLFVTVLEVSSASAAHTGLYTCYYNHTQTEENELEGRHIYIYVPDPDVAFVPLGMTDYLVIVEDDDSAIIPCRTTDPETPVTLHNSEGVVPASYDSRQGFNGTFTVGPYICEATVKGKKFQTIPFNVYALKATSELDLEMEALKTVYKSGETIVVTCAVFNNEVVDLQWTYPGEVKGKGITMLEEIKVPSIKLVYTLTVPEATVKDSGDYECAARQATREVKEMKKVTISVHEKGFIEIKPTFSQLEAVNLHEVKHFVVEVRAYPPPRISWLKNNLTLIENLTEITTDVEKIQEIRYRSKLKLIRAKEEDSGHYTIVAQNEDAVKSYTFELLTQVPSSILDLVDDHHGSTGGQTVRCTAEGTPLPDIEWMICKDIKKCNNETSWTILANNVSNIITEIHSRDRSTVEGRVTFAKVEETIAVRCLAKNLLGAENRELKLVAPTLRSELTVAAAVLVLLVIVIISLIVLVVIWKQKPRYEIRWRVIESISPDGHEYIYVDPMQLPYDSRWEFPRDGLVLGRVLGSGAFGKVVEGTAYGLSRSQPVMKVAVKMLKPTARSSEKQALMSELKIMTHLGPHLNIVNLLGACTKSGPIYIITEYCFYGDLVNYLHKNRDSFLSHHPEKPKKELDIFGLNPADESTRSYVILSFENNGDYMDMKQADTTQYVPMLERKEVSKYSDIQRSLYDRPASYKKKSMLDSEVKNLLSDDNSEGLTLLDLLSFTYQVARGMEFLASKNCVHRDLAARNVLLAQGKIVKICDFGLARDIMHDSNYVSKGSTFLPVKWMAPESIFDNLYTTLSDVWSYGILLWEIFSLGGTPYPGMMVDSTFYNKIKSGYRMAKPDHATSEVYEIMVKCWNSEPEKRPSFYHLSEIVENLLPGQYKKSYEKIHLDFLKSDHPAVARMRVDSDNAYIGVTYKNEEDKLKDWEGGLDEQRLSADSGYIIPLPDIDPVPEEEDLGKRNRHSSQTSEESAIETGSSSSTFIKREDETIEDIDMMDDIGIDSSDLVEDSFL
T2 sequence (P10721 26-976): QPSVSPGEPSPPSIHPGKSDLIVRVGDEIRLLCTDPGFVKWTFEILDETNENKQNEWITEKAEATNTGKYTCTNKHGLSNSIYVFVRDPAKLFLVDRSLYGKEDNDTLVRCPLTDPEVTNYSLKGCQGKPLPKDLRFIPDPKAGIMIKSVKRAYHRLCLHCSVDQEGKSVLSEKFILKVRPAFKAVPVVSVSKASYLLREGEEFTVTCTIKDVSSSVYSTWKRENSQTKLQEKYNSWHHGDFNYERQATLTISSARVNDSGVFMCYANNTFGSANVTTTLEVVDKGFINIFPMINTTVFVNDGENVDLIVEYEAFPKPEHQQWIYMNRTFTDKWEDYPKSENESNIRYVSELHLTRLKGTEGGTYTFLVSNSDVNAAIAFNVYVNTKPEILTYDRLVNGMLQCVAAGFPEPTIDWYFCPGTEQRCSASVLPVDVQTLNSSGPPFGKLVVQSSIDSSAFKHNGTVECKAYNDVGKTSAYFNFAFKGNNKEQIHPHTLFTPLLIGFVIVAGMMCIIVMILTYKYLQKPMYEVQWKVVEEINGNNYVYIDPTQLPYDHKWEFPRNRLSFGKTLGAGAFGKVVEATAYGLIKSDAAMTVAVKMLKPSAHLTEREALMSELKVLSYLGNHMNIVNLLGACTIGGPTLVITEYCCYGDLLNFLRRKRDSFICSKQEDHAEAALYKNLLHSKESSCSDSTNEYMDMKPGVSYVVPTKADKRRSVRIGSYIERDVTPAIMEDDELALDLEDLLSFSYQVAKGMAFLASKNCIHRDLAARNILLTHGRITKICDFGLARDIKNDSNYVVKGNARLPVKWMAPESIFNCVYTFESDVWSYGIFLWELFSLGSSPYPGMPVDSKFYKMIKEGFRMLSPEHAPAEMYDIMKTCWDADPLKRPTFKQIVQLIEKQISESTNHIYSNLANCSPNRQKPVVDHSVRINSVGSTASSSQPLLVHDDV

Row | IC50 (PDGF-Ra) [nM] | IC50 (c-kit) [nM] | inhibition at 0.1 µM (PDGF-Ra) [%] | inhibition at 1 µM (c-kit; [1]) [%] | c-kit inhibition (%) at 1000 nM (c-kit; figure in parentheses in −( ), at 1000 nM, 1 µM) | Structure (SMILES)
1 | 48 | 379 | – | – | – | CCCCC(C)C(=O)NC(=S)Nc1ccc(Oc2ccnc3cc(OC)c(OC)cc23)c(Cl)c1 (stereo not shown) [Example 1077, N-{3-Chloro-4-[(6,7-dimethoxy-4-quinolyl)oxy]phenyl}-N′-(2-methylhexanoyl)thiourea]
2 | > 100 | – | 37 | 26 | – | COc1cc2nccc(Oc3ccc(NC(=S)NC(=O)c4ccccc4C)c(Cl)c3)c2cc1OC [Example 1101, N-{2-Chloro-4-[(6,7-dimethoxy-4-quinolyl)oxy]phenyl}-N′-(2-methylbenzoyl)thiourea]
3 | > 100 | – | 38 | 11 | – | COc1cc2nccc(Oc3ccc(NC(=S)NC(=O)c4ccc(C)cc4)c(Cl)c3)c2cc1OC [Example 1102, N-{2-Chloro-4-[(6,7-dimethoxy-4-quinolyl)oxy]phenyl}-N′-(4-methylbenzoyl)thiourea]
4 | > 100 | – | 25 | 3 | – | COc1cc2nccc(Oc3ccc(NC(=S)NC(=O)c4ccccc4OC)c(Cl)c3)c2cc1OC [Example 1103, N-{2-Chloro-4-[(6,7-dimethoxy-4-quinolyl)oxy]phenyl}-N′-(2-methoxybenzoyl)thiourea]
5 | 77 | – | – | 23 | – | COc1cc2nccc(Oc3ccc(NC(=S)NC(=O)c4ccccc4Cl)c(Cl)c3)c2cc1OC [Example 1104, N-(2-Chlorobenzoyl)-N′-{2-chloro-4-[(6,7-dimethoxy-4-quinolyl)oxy]phenyl}thiourea]
6 | > 100 | – | 31 | – | −(1) % | COc1cc2nccc(Oc3ccc(NC(=S)NC(=O)Cc4ccccc4)c(C)c3C)c2cc1OC [Example 1105, N-{4-[(6,7-Dimethoxy-4-quinolyl)oxy]-2,3-dimethylphenyl}-N′-(2-phenylacetyl)thiourea]
7 | > 100 | – | 30 | 0 | – | COc1cc2nccc(Oc3ccc(NC(=S)NC(=O)CCC4CCCC4)c(Cl)c3)c2cc1OC [Example 1106, N-{2-Chloro-4-[(6,7-dimethoxy-4-quinolyl)oxy]phenyl}-N′-(3-cyclopentylpropanoyl)thiourea]
8 | > 100 | – | 46 | 24 | – | COc1cc2nccc(Oc3ccc(NC(=S)NC(=O)c4ccccc4)c(Cl)c3)c2cc1OC [Example 1107, N-Benzoyl-N′-{2-chloro-4-[(6,7-dimethoxy-4-quinolyl)oxy]phenyl}thiourea]
9 | > 100 | – | 48 | 26 | – | COc1cc2nccc(Oc3ccc(NC(=S)NC(=O)c4cc(Cl)cc(Cl)c4)c(F)c3)c2cc1OC [Example 1122, N-(3,5-Dichlorobenzoyl)-N′-{4-[(6,7-dimethoxy-4-quinolyl)oxy]-2-fluorophenyl}thiourea]
10 | > 100 | – | 22 | 8 | – | COc1cc2nccc(Oc3ccc(NC(=S)NC(=O)c4ccc(-c5ccccc5)cc4)c(F)c3)c2cc1OC [Example 1125, N-(4-Phenylbenzoyl)-N′-{4-[(6,7-dimethoxy-4-quinolyl)oxy]-2-fluorophenyl}thiourea]
11 | > 100 | – | 70 | 35 | – | COc1cc2nccc(Oc3ccc(NC(=S)NC(=O)c4ccc5c(c4)OCO5)cc3Cl)c2cc1OC [Example 1126, N-(1,3-Benzodioxol-5-ylcarbonyl)-N′-{3-chloro-4-[(6,7-dimethoxy-4-quinolyl)oxy]phenyl}thiourea]
12 | > 100 | – | 47 | 17 | – | CCCCCCCCc1ccc(C(=O)NC(=S)Nc2ccc(Oc3ccnc4cc(OC)c(OC)cc34)cc2)cc1 [Example 1128, N-{4-[(6,7-Dimethoxy-4-quinolyl)oxy]phenyl}-N′-(4-octylbenzoyl)thiourea]
13 | < 10 | 547 | – | – | – | COc1cc2nccc(Oc3ccc(NC(=S)NC(=O)N4CCc5ccccc5C4)cc3)c2cc1OC [Example 1130, N-{4-[(6,7-Dimethoxy-4-quinolyl)oxy]phenyl}-N′-(1,2,3,4-tetrahydro-2-isoquinolylcarbonyl)thiourea]
14 | 51 | 192 | – | – | – | COc1cc2nccc(Oc3ccc(NC(=S)NC(=O)CCC4CCCC4)cc3)c2cc1OC [Example 1131, N-(3-Cyclopentylpropanoyl)-N′-{4-[(6,7-dimethoxy-4-quinolyl)oxy]phenyl}thiourea]
15 | < 10 | 146 | – | – | – | COc1cc2ncnc(Oc3ccc(NC(=S)NC(=O)CCC4CCCC4)cc3)c2cc1OC [Example 1132, N-(3-Cyclopentylpropanoyl)-N′-{4-[(6,7-dimethoxy-4-quinazolinyl)oxy]phenyl}thiourea]
16 | < 10 | 42 | – | – | – | COc1cc2ncnc(Oc3ccc(NC(=S)NC(=O)CCc4ccccc4C)cc3)c2cc1OC [Example 1133, N-{4-[(6,7-Dimethoxy-4-quinazolinyl)oxy]phenyl}-N′-[3-(2-methylphenyl)propanoyl]thiourea]
17 | < 10 | 239 | – | – | – | COc1cc2nccc(Oc3ccc(NC(=S)NC(=O)CCSC)cc3)c2cc1OC [Example 1135, N-{4-[(6,7-Dimethoxy-4-quinolyl)oxy]phenyl}-N′-[3-(methylsulphenyl)propanoyl]thiourea]
18 | 14 | 639 | – | – | – | COc1cc2nccc(Oc3ccc(NC(=S)NC(=O)c4ccc(CCl)cc4)cc3)c2cc1OC [Example 1136, N-[4-(Chloromethyl)benzoyl]-N′-{4-[(6,7-dimethoxy-4-quinolyl)oxy]phenyl}thiourea]
19 | 28 | – | – | 38 | – | COc1cc2nccc(Oc3ccc(NC(=S)NC(=O)c4ccc(CCl)cc4)cc3Cl)c2cc1OC [Example 1137, N-{3-Chloro-4-[(6,7-dimethoxy-4-quinolyl)oxy]phenyl}-N′-[4-(chloromethyl)benzoyl]thiourea]
20 | 12 | 783 | – | – | – | COc1cc2ncnc(Oc3ccc(NC(=S)NC(=O)CCCc4ccccc4)cc3)c2cc1OC [Example 1139, N-{4-[(6,7-Dimethoxy-4-quinazolinyl)oxy]phenyl}-N′-(4-phenylbutanoyl)thiourea]
21 | < 10 | 416 | – | – | – | COc1ccccc1CCC(=O)NC(=S)Nc1ccc(Oc2ncnc3cc(OC)c(OC)cc23)cc1 [Example 1141, N-{4-[(6,7-Dimethoxy-4-quinazolinyl)oxy]phenyl}-N′-[3-(2-methoxyphenyl)propanoyl]thiourea]
22 | 28 | – | – | 30 | – | COc1cc2ncnc(Oc3ccc(NC(=S)NC(=O)C(C)Oc4ccccc4Cl)cc3)c2cc1OC (stereo not shown) [Example 1144, N-[2-(2-Chlorophenoxy)propanoyl]-N′-{4-[(6,7-dimethoxy-4-quinazolinyl)oxy]phenyl}thiourea]
23 | 23 | 552 | – | – | – | COc1cc2nccc(Oc3ccc(NC(=S)NC(=O)c4ccc(C)s4)cc3)c2cc1OC [Example 1146, N-{4-[(6,7-Dimethoxy-4-quinolyl)oxy]phenyl}-N′-[(5-methyl-2-thienyl)carbonyl]thiourea]
24 | 10 | 105 | – | – | – | COc1cc2nccc(Oc3ccc(NC(=S)NC(=O)Cc4ccccc4)cc3Cl)c2cc1OC [Example 1147, N-{3-Chloro-4-[(6,7-dimethoxy-4-quinolyl)oxy]phenyl}-N′-(2-phenylacetyl)thiourea]
